In ChEMBL document CHEMBL1156829 (Proc Natl Acad Sci U S A, 2008):

How the values were obtained:
Plasmodium falciparum [1] = test: NOVARTIS: Inhibition of Plasmodium falciparum W2 (drug-resistant) proliferation in erythrocyte-based infection assay; type: functional, organism-based; settings: Plasmodium falciparum, W2; read-out: EC50
[2] = NOVARTIS: Cytotoxicity against human hepatocellular carcinoma cell line (Huh7); type: toxicity, cell-based, Huh-7; settings: Huh7 cells (hepatocellular carcinoma cell line)
Plasmodium falciparum [3] = test: NOVARTIS: Inhibition of Plasmodium falciparum 3D7 (drug-susceptible) proliferation in erythrocyte-based infection assay; type: functional, organism-based; settings: Plasmodium falciparum, 3D7

SMILES	EC50 (Plasmodium falciparum [1]) [nM]	CC50 [2] [nM]	EC50 (Plasmodium falciparum [3]) [nM]
CCOC(=O)C1=C(C)N/C(=C\c2cc(C)n(-c3ccc(C)cc3)c2C)C1=O	988	> 10000	1840
Cc1ccccc1CNC(=O)c1oc2c(c1C)-c1[nH]ncc1CC2	> 914	> 10000	> 1250
COc1cccc2c1OCC(C(=O)Nc1ccc(C)cc1)=C2	> 12500	54700	461
CCCc1nc2ccc(NC(=O)c3ccco3)cc2c(=O)n1Cc1ccc(-c2ccccc2)cc1	422	> 100000	262
CCCCCCc1cc(O)c2c3c(c(=O)oc2c1)CCC(C)C3 (centres undefined)	297	> 100000	364
CC(=O)Nc1c(NCc2ccccc2)c2ccccc2sc1=O	154	> 100000	505
COc1cc(OC)cc(C(=O)N(CCCC(C)Nc2cc(OC)cc3cccnc23)Cc2ccc(Cl)cc2)c1 (centres undefined)	348	9860	> 439
CC(=O)N1CCc2cc(Br)cc(S(=O)(=O)N3CCCC(C)C3)c21 (centres undefined)	1320	> 10000	> 1730
O=C(c1ccc(-n2c(SCc3ccc(Cl)cc3)nc3ccccc3c2=O)cc1)N1CCOCC1	2280	> 100000	> 12500
CC(=O)N(C1=C(N2CCCCC2)C(=O)c2ccccc2C1=O)c1ccc(F)cc1	34.5	33300	155
c1cc2cc3c(cc2c2cc4c(cc12)C[N+]1(CCCC1)C4)C[N+]1(CCCC1)C3	1060	> 100000	645
CCCCOc1ccc(NC2=NC3(CCCC3)NC(N)=N2)cc1	2330	> 100000	1090
COc1ccc(C(=O)NCCc2ccc(C)cc2)cc1OC1CCN(C(C)=O)CC1	2520	> 100000	> 9060
N=C(N)c1ccc(OCCCCCOc2ccc(C(=N)N)cc2)cc1 [PENTAMIDINE]	68.7	> 6250	66.2
CN(C)c1ccc(C=C2SC(=N)N(c3nccs3)C2=O)cc1	1830	> 100000	5050
COc1ccc(C2=C(Nc3ccc(Br)c(C)c3)c3ccccc3C2=O)cc1	202	> 100000	185
O=C(NC1CCN(Cc2ccccc2)CC1)c1cc(-c2ccc(F)cc2)cc(-n2cnnn2)c1	126	45000	126

SMILES	EC50 (Plasmodium falciparum [1]) [nM]	CC50 [2] [nM]	EC50 (Plasmodium falciparum [3]) [nM]
COc1cc(Br)c(/C=C2\Sc3ccccc3C2=O)cc1OC	> 925	> 10000	> 1250
CCOC(=O)c1nnn(-c2nonc2N)c1-c1ccc(OC)c(OC)c1	450	> 100000	513
CCCOC(=O)C1=C(C)NC2=C(C(=O)CC(c3ccc(OC)c(OC)c3)C2)C1c1ccc(O)c(OCC)c1 (centres undefined)	1280	> 100000	2400
CCOC(=O)c1cc(-c2ccc(C)cc2)n(CCC(=O)Nc2cccc(C(F)(F)F)c2)c1C	327	33700	823
COC(=O)c1c(-c2c(Cl)cccc2Cl)noc1NC(=O)NN1CCCCC1	151	> 100000	277
Cc1cccnc1NC(c1ccc([N+](=O)[O-])cc1)c1ccc2cccnc2c1O (centres undefined)	214	15000	140
Clc1ccccc1-c1nc([P+](c2ccccc2)(c2ccccc2)c2ccccc2)c(N2CCOCC2)o1	238	10100	350
COC(CNc1cc(-c2ccccn2)nc(-c2ccccn2)n1)OC	633	> 10000	336
c1ccc(-c2cc(NCc3ccco3)nc(-c3ccccn3)n2)nc1	91.4	> 10000	182
CCOC(=O)c1ccc(NC(=O)c2ccc3nc(NC(=O)c4ccc(C(=O)OC)cc4)sc3c2)cc1	1800	> 100000	> 6510
Cc1ccc(S(=O)(=O)Nc2ccc(C(=O)NCCC(C)C)cc2)cc1	> 1250	> 10000	> 837
CCN(c1ccc(OC)cc1)S(=O)(=O)c1ccc(C)cc1	1370	> 100000	> 12500
CCN(CC)CCCC(C)Nc1nc(/C=C/c2ccccc2OC)nc2cc(Cl)ccc12 (centres undefined)	688	> 10000	878
COCCOC(=O)C1=C(C)NC2=C(C(=O)CC(c3ccc(OC)cc3)C2)C1c1ccc(F)cc1 (centres undefined)	59	> 100000	161
C[C@@H]1CCC[C@@H](C[C@H]2Cc3cc(O)cc(O)c3C(=O)O2)O1	92.7	> 100000	45.4
CC(=C(Cl)Cl)/C(Br)=C(\Br)CO	59.5	> 10000	179
